Results: patent publication US8697742B2, “BCRP/ABCG2 inhibitor” (Kabushiki Kaisha Yakult Honsha, priority 2005, dated 2014)
Converted amounts (≈) assume the structure as drawn. Structures can show the parent of a compound that is named as a salt. Where two headings read alike, the source gives them in different places.

Experiments:
K562/MDR cells = test: Effect on paclitaxel (multidrug) resistance of human MDR1 gene-transduced K562 cells; assay type: cell-based; settings: concentration for 50% reduction of relative paclitaxel resistance value, K562/MDR vs K562, 72 hours; for EC50: Homo sapiens, read-out: Effect of overcoming resistance EC50
Excerpt: After completion of culturing, the number of viable cells was counted by use of TetraColor ONE according to the manufacture's instruction manual.

A549/SN-38-4 cells = test: Effect of overcoming SN-38 resistance of BCRP-expressing A549/SN-38-4 cells; assay type: cell-based, human; settings: 48 hours culture with SN-38; for EC50: Homo sapiens, A549, 48 h
Method: The human lung cancer A549 cells or the A549/SN-38-4 cells were suspended in a Ham's F-12 medium containing 10% FBS, 100 U/mL of penicillin, and 100 μg/mL of streptomycin (10% FBS/Ham's F-12), and the resultant suspension was inoculated into a 96-well microplate (2×10^3 cells/50 μL/well), followed by culturing at 5% CO2 and 37° C. overnight. […] After completion of culturing, the number of viable cells was counted by use of a viable cell counting reagent [TetraColor ONE (trademark), product of Seikagaku Corporation] according to the attached instruction manual. […] The greater the relative resistance value, the higher the level of acquired resistance.

[1] = concentration for 50% reduction of relative SN-38 resistance value (IC50 A549/SN-38-4 / IC50 A549), read-out: Effect of overcoming resistance EC50
[2] = concentration for 50% reduction of relative SN-38 resistance value (IC50 A549/SN-38-4 / IC50 A549)
[3] = concentration for 50% reduction of relative SN-38 resistance value (IC50 A549/SN-38-4 / IC50 A549), hydrochloride

| Molecule | EC50 (K562/MDR cells) [µg/mL] | EC50 (A549/SN-38-4 cells; [1]) [µg/mL] | further results |
| --- | --- | --- | --- |
| COc1ccc(/C(C#N)=C/c2ccc(N3CCC(OP(=O)([O-])[O-])CC3)s2)cc1OC.[Na+].[Na+] [Compound 17, mono-(1-{5-[(Z)-2-cyano-2-(3,4-dimethoxy-phenyl)-vinyl]-thiophen-2-yl}-piperidin-4-yl)phosphate sodium salt] | > 5 | – | – |
| COc1ccc(/C(C#N)=C/c2ccc(N)s2)cc1OC [Compound 3, (Z)-3-(5-amino-thiophen-2-yl)-2-(3,4-dimethoxy-phenyl)-acrylonitrile] | > 5 | 0.032 (≈ 0.112 µM) | – |
| COc1ccc(/C(C#N)=C/c2cccnc2)cc1OC [Compound 34, (Z)-2-(3,4-dimethoxy-phenyl)-3-pyridin-3-yl-acrylonitrile] | > 5 | – | Effect of overcoming resistance EC50 (A549/SN-38-4 cells; [2]): 0.058 µg/mL |
| COc1ccc(/C(C#N)=C/c2ccc(N3CCOCC3)s2)cc1OC [Compound 5, (Z)-2-(3,4-dimethoxy-phenyl)-3-(5-morpholin-4-yl-thiophen-2-yl)-acrylonitrile] | > 5 | 0.013 (≈ 0.0365 µM) | – |
| COc1ccc(/C(C#N)=C/c2ccc(N3CCC(OC(=O)CCC(=O)O)CC3)s2)cc1OC [Compound 18, mono-(1-{5-[(Z)-2-cyano-2-(3,4-dimethoxy-phenyl)-vinyl]-thiophen-2-yl}-piperidin-4-yl)succinate] | – | – | Effect of overcoming resistance EC50 (K562/MDR cells): >5 µg/mL |
| (Z)-2-(3,4-dimethoxy-phenyl)-3-pyridin-4-yl-acrylonitrile N-oxide [Compound 33] | – | – | Effect of overcoming resistance EC50 (A549/SN-38-4 cells; [2]): 0.52 µg/mL; Effect of overcoming resistance EC50 (K562/MDR cells): >5 µg/mL |
| COc1ccc(/C=C(\C#N)c2ccsc2)cc1OC [Compound 56, (Z)-3-(3,4-dimethoxy-phenyl)-2-thiophen-3-yl-acrylonitrile] | > 5 | 0.037 (≈ 0.136 µM) | – |
| COc1ccc(/C(C#N)=C/c2ccc(N3CCOCC3)o2)cc1OC [Compound 25, (Z)-2-(3,4-dimethoxy-phenyl)-3-(5-morpholin-4-yl-furan-2-yl)-acrylonitrile] | > 5 | 0.013 (≈ 0.0382 µM) | – |
| COc1ccc(/C(C#N)=C/c2ccc(N3CCC(OP(=O)([O-])[O-])CC3)o2)cc1OC.[Na+].[Na+] [Compound 53, mono-(1-{5-[(Z)-2-cyano-2-(3,4-dimethoxy-phenyl)-vinyl]-furan-2-yl}-piperidin-4-yl)phosphate sodium salt] | > 5 | – | – |
| COc1ccc(/C=C(\C#N)c2cccs2)cc1OC [Compound 55, (E)-3-(3,4-dimethoxy-phenyl)-2-thiophen-2-yl-acrylonitrile] | > 5 | – | – |
| COc1ccc(/C(C#N)=C/c2sc(-c3ccccc3)nc2C)cc1OC [Compound 43, (Z)-2-(3,4-dimethoxy-phenyl)-3-(4-methyl-2-phenyl-thiazol-5-yl)-acrylonitrile] | > 5 | 0.16 (≈ 0.441 µM) | – |
| COc1ccc(/C(C#N)=C/c2ccc(N3CCN(CCO)CC3)o2)cc1OC [Compound 28, (Z)-2-(3,4-dimethoxy-phenyl)-3-{5-[4-(2-hydroxy-ethyl)-piperazin-1-yl]-furan-2-yl}-acrylonitrile] | > 5 | 0.12 (≈ 0.313 µM) | – |
| COc1ccc(/C(C#N)=C/c2ccc([N+](=O)[O-])o2)cc1OC [Compound 19, (Z)-2-(3,4-dimethoxy-phenyl)-3-(5-nitro-furan-2-yl)-acrylonitrile] | > 5 | 0.014 (≈ 0.0466 µM) | – |
| COc1ccc(/C(C#N)=C/c2ccc(N3CCCCC3)s2)cc1OC [Compound 4, (Z)-2-(3,4-dimethoxy-phenyl)-3-(5-piperidin-1-yl-thiophen-2-yl)-acrylonitrile] | > 5 | – | Effect of overcoming resistance EC50 (A549/SN-38-4 cells; [2]): 0.012 µg/mL |
| COc1ccc(/C(C#N)=C/c2ccc[nH]2)cc1OC.Cl [Compound 40, (Z)-2-(3,4-dimethoxy-phenyl)-3-(1H-pyrrol-2-yl)-acrylonitrile hydrochloride] | > 5 | 0.075 | – |
| COc1ccc(/C(C#N)=C/c2ccccn2)cc1OC [Compound 38, (Z)-2-(3,4-dimethoxy-phenyl)-3-pyridin-2-yl-acrylonitrile] | > 5 | 0.06 (≈ 0.225 µM) | – |
| COc1ccc(/C(C#N)=C/c2ccncc2)cc1OC [Compound 30, (Z)-2-(3,4-dimethoxy-phenyl)-3-pyridin-4-yl-acrylonitrile] | > 5 | 0.02 (≈ 0.0751 µM) | – |
| CCN(CC)CCN(C)C(=O)CCC(=O)OC1CCN(c2ccc(/C=C(\C#N)c3ccc(OC)c(OC)c3)s2)CC1 [Compound 98, 1-[5-[(Z)-2-cyano-2-(3,4-dimethoxy-phenyl)-vinyl]-thiophen-2-yl]-piperidin-4-yl N-(2-diethylamino-ethyl)-N-methyl-succinamate hydrochloride] | – | 0.1 | – |

| Molecule | EC50 (K562/MDR cells) [µg/mL] | EC50 (A549/SN-38-4 cells; [1]) [µg/mL] | further results |
| --- | --- | --- | --- |
| COc1ccc(/C(C#N)=C/c2ccc(Br)s2)cc1OC [Compound 2, (Z)-3-(5-bromo-thiophen-2-yl)-2-(3,4-dimethoxy-phenyl)-acrylonitrile] | – | 0.13 (≈ 0.371 µM) | – |
| COc1ccc(/C(C#N)=C/c2ccc(N3CCN(CCO)CC3)o2)cc1OC [Compound 50, (Z)-2-(3,4-dimethoxy-phenyl)-3-{5-[4-(2-hydroxy-ethyl)-piperazin-1-yl]-furan-2-yl}-acrylonitrile hydrochloride] | – | – | Effect of overcoming resistance EC50 (A549/SN-38-4 cells; [3]): 0.11 µg/mL |
| CCN(CC)c1ccc(NC(=O)CCC(=O)OC2CCN(c3ccc(/C=C(\C#N)c4ccc(OC)c(OC)c4)s3)CC2)cc1 [Compound 99, 1-[5-[(Z)-2-cyano-2-(3,4-dimethoxy-phenyl)-vinyl]-thiophen-2-yl]-piperidin-4-yl N-(4-diethylamino-phenyl)-succinamate] | – | 0.063 (≈ 0.102 µM) | – |
| COc1ccc(/C(C#N)=C/c2cccnc2)cc1OC [Compound 36, (Z)-2-(3,4-dimethoxy-phenyl)-3-pyridin-3-yl-acrylonitrile hydrochloride] | – | – | Effect of overcoming resistance EC50 (A549/SN-38-4 cells; [3]): 0.12 µg/mL |
| COc1ccc(/C(C#N)=C/c2ccc(N3CCC(OC(=O)CCC(=O)N4CCC(N5CCCCC5)CC4)CC3)s2)cc1OC.Cl [Compound 64, 1-[5-[(Z)-2-cyano-2-(3,4-dimethoxy-phenyl)-vinyl]-thiophen-2-yl]-piperidin-4-yl 4-[1,4′]bipiperidinyl-1′-yl-4-oxo-butylate hydrochloride] | – | – | Effect of overcoming resistance EC50 (A549/SN-38-4 cells; [2]): 0.053 µg/mL |
| COc1ccc(/C(C#N)=C/c2ccc(N3CCC(OP(=O)(O)O)CC3)o2)cc1OC [Compound 52, mono-(1-{5-[(Z)-2-cyano-2-(3,4-dimethoxy-phenyl)-vinyl]-furan-2-yl}-piperidin-4-yl)phosphate] | – | – | Effect of overcoming resistance EC50 (K562/MDR cells): >5 µg/mL |
| COc1ccc(/C(C#N)=C/c2ccc(N3CCN(CCO)CC3)s2)cc1OC.CS(=O)(=O)O [Compound 59, (Z)-2-(3,4-dimethoxy-phenyl)-3-{5-[4-(2-hydroxy-ethyl)-piperazin-1-yl]-thiophen-2-yl}-acrylonitrile methanesulfonate] | – | 0.061 | – |
| COc1ccc(/C(C#N)=C/c2ccc(N3CCN(CCO)CC3)s2)cc1OC.O=S(=O)(O)O [Compound 101, (Z)-2-(3,4-dimethoxy-phenyl)-3-{5-[4-(2-hydroxy-ethyl)-piperazin-1-yl]-thiophen-2-yl}-acrylonitrile sulfate] | – | 0.013 | – |
| COc1ccc(/C(C#N)=C/c2cc3ccccc3nc2Cl)cc1OC [Compound 70, (Z)-3-(2-chloro-quinolin-3-yl)-2-(3,4-dimethoxy-phenyl)-acrylonitrile] | – | 0.011 (≈ 0.0314 µM) | – |
| COc1ccc2nc(Cl)c(/C=C(\C#N)n3nnc4ccccc43)cc2c1 [Compound 83, (E)-2-benzotriazol-1-yl-3-(2-chloro-6-methoxy-quinolin-3-yl)-acrylonitrile] | – | 0.19 (≈ 0.525 µM) | – |
| COc1ccc(-c2cc(/C=C(\C#N)c3ccc(OC)c(OC)c3)no2)cc1 [Compound 77, (Z)-2-(3,4-dimethoxy-phenyl)-3-[5-(4-methoxy-phenyl)-isoxazol-3-yl]-acrylonitrile] | – | 0.11 (≈ 0.304 µM) | – |
| COc1ccc(/C(C#N)=C/c2ccc(N3CCCCC3)o2)cc1OC [Compound 24, (Z)-2-(3,4-dimethoxy-phenyl)-3-(5-piperidin-1-yl-furan-2-yl)-acrylonitrile] | – | 0.034 (≈ 0.1 µM) | – |
| COc1ccc(/C=C(\C#N)c2ccccn2)cc1OC [Compound 47, (Z)-3-(3,4-dimethoxy-phenyl)-2-pyridin-2-yl-acrylonitrile hydrochloride] | – | – | Effect of overcoming resistance EC50 (A549/SN-38-4 cells; [3]): 0.03 µg/mL |
| (E)-2-benzothiazol-1-yl-3-(3,4-dimethoxy-phenyl)-acrylonitrile [Compound 71] | – | – | Effect of overcoming resistance EC50 (A549/SN-38-4 cells; [2]): 0.013 µg/mL |
| COc1ccc(/C(C#N)=C/c2cc3ccccc3c3ccccc23)cc1OC [Compound 95, (Z)-2-(3,4-dimethoxy-phenyl)-3-phenanthren-9-yl-acrylonitrile] | – | – | EC50 (A549/SN-38-4 cells; read-out: Effect of overcoming resistance EC50, concentration for 50% reduction of relative SN-38 resistance value (IC50 A549/SN-38-4 / IC50 A549)): 0.008 µg/mL (≈ 0.0219 µM) |
| COc1ccc(/C(C#N)=C/c2ccc(N(C)CCN(C)C)s2)cc1OC [Compound 10, (Z)-2-(3,4-dimethoxy-phenyl)-3-{5-[(2-dimethylamino-ethyl)-methyl-amino]-thiophen-2-yl}-acrylonitrile] | – | 0.12 (≈ 0.323 µM) | – |
| COc1ccc(/C=C(\C#N)c2nc3ccccc3s2)cc1OC [Compound 74, (E)-2-benzothiazol-2-yl-3-(3,4-dimethoxy-phenyl)-acrylonitrile] | – | 0.021 (≈ 0.0651 µM) | – |
